Measurements taken from patent US7772255B2, “Method of treating tumors with azaxanthones” (Supratek Pharma, Inc., priority 2005, dated 2010).
Like-named read-outs stand apart in the source and are kept apart here.

Experiments:
[1] = Pharmacokinetics in normal dogs; type: in vivo, dog (Canis familiaris); details: 10 mg/kg
Procedure: Experiments were performed in 6 male Beagle dogs (Canis familiaris) (from 8 to 14 kg body weight, 2 to 3 years of age). The animals had ad libitum access to tap water. Commercial dog chow was provided to the animals once daily during a 2-hour feeding period.
Dosing solution of amlexanox salt was prepared by simple dissolving of amlexanox salt in water. Dosing solution of amlexanox acid was prepared suspending of amlexanox acid in 0.5% methyl cellulose.
Amlexanox acid and Na salt forms were orally administered by gavage in dogs (three animals in each group) at doses of 10 mg/kg. Amlexanox tablets L and CP, prepared according to Example 13, were administered to dogs orally at doses of 10 mg/kg. After various time intervals (pre-dose, 15, 30 min and 1, 2, 3, 6, 8, 12, 24 and 48 h) post-injection, blood was collected from the jugular vein of animals. Then, blood was immediately centrifuged, and plasma was separated. The plasma samples were immediately frozen in dry ice and stored at −80° C. until further use.
The defrosted plasma samples were centrifuged at 2000 g for 5 min, and aliquots (10 μL) of each sample were transferred into 1.5-ml plastic tubes. The samples were diluted with PBS in various amounts of times and aliquots of 100 μL were transferred into the other 1.5-ml plastic tubes. The samples were extracted with 1 mL of 100% acetonitrile for 10 min on 180° rotator. Then, the tubes were centrifuged at 10,000 g for 15 min.
(§1) The supernatant was separated to glass tubes and evaporated in a stream of nitrogen at […]. until dryness. The dried samples were kept at −20° C. until HPLC analysis. The samples were reconstituted in 100 μL of mobile phase analyze before analyze by HPLC.
(§2) The samples were analysed by HPLC using 250×4.6 mm, Phenomenex C18 Luna, 5 micron column, 1 mL/min flow rate of mobile phase 73% of 25 mM sodium phosphate pH 7.5 and 27% acetonitrile; fluorescent deyection λexcitation=348 nm, λemission=404 nm.
The concentrations of amlexanox in samples were determined by comparison with calibration curve obtained from spiked dog plasma samples using the same analytical method. The areas under the curves (AUC) of amlexanox were calculated by trapezoidal method.

[2] = Bioavailability and pharmacokinetics in normal rats; type: in vivo, rat; details: for AUC / Cmax / MRT / half-life / bioavailability: female, CD, rat, plasma, po; for AUC / Cmax / MRT / half-life / CL / Vss: rat plasma, acid suspended in 1% methyl cellulose; for bioavailability: acid, read-out: Bioavailability for oral administration; for CL / Vss: oral
Procedure: Female CD rats (from 200 to 250 g body weight) were obtained from Charles River Canada Inc. (St. Constant, Quebec, Canada). The animals were kept 4 per cage with an air filter cover under light (12 h light/dark cycle, light on at 06 h 00) and temperature (22°±1° C.)-controlled environment. All manipulations with the animals were performed under a sterilized laminar hood. The animals had ad libitum access to Purina rat chow (Pro Lab PMH 4018, Trademark of Agway, Syracuse, N.Y.) and water. The animal studies were conducted according to the “Guidelines for Care and Use of Experimental Animals”.
For Amlexanox salt the dosing solution was prepared by dissolving 20 mg of Amlexanox in equi-molar NaOH solution and then, equilibrated with 1M Tris-HCl pH 7.4. For Amlexanox acid the dosing solution was prepared by simple suspending 20 mg of Amlexanox in 1% methyl cellulose in water.
Amlexanox dosing solution (20 mg/mL) was administered i.v. and orally in normal rats (four animals in each group) at doses of 10, 25, 50, 100 and 200 mg/kg. After various time intervals (30 min and 1, 3, 6, 10 and 24 h) post-injection, blood was collected from eye vein of animals. Then, blood was immediately centrifuged, and plasma was separated. The plasma samples were immediately frozen in dry ice and stored at −80° C. until further use.
The defrosted plasma samples were centrifuged at 2000 g for 5 min, and aliquots (10 μL) of each sample were transferred into 1.5-ml plastic tubes. The samples were diluted with phosphate buttered saline (PBS) in various amounts of times and aliquots of 100 μL were transferred into the other 1.5-ml plastic tubes. The samples were extracted with 1 mL of 100% acetonitrile for 10 min on 180° rotator. Then, the tubes were centrifuged at 10,000 g for 15 min.
as §1, §2
The concentrations of Amlexanox in samples were determined by comparison with calibration curve obtained from spiked rat plasma samples using the same analytical method. The areas under the curves (AUC) of Amlexanox were calculated by trapezoidal method.

[3] = dog plasma, oral, listed as Amlexanox Acid

In the case of `CC(C)c1ccc2oc3nc(N)c(C(=O)O)cc3c(=O)c2c1` [Amlexanox, 2-amino-7-isopropyl-1-azaxanthone-3-carboxylic acid], the AUC [1, 3] is reported as 7600 ng·h/mL, the CL [1, 3] is reported as 21.7 mL/min/kg and the Cmax [1, 3] is reported as 3400 ng/mL. For the same compound, the Vss [1, 3] was 4.3 L/kg, the half-life ([1]; male, Beagle, dog, plasma, po) was 2.3 h and the MRT ([1]; male, Beagle, dog, plasma, po, read-out: MRT) was 3.3 h. For the same compound, the AUC ([2]; 10 mg/kg) was 1050 ng·h/mL, the Cmax ([2]; 10 mg/kg) was 370 ng/mL and the MRT ([2]; 10 mg/kg) was 6.28 h. It also gave a half-life ([2]; 10 mg/kg) of 4.36 h, a bioavailability ([2]; 10 mg/kg, 10 mg/kg) of 31.5% and an AUC ([2]; 25 mg/kg) of 1380 ng·h/mL. For the same compound, the Cmax ([2]; 25 mg/kg) was 260 ng/mL, the MRT ([2]; 25 mg/kg) was 11.3 h and the half-life ([2]; 25 mg/kg) was 7.81 h. It also gave a bioavailability ([2]; 25 mg/kg, 25 mg/kg) of 2.9%, an AUC ([2]; 50 mg/kg) of 2380 ng·h/mL and a Cmax ([2]; 50 mg/kg) of 580 ng/mL. It also gave an MRT ([2]; 50 mg/kg) of 8.43 h, a half-life ([2]; 50 mg/kg) of 5.84 h and a bioavailability ([2]; 50 mg/kg, 50 mg/kg) of 1.1%. It also gave an AUC ([2]; 100 mg/kg) of 8830 ng·h/mL, a Cmax ([2]; 100 mg/kg) of 1170 ng/mL and an MRT ([2]; 100 mg/kg) of 8.7 h. The half-life ([2]; 100 mg/kg) was 6.04 h, the bioavailability ([2]; 100 mg/kg, 100 mg/kg) was 2.2% and the AUC ([2]; 200 mg/kg) was 18600 ng·h/mL. It also gave a Cmax ([2]; 200 mg/kg) of 7000 ng/mL, an MRT ([2]; 200 mg/kg) of 5.32 h and a half-life ([2]; 200 mg/kg) of 3.68 h. The bioavailability ([2]; 200 mg/kg, 200 mg/kg) was 2.5%, the CL ([2]; 10 mg/kg) was 158 mL/min/kg and the Vss ([2]; 10 mg/kg) was 59.8 L/kg. The CL ([2]; 25 mg/kg) was 301.7 mL/min/kg, the Vss ([2]; 25 mg/kg) was 204 L/kg and the CL ([2]; 50 mg/kg) was 350.2 mL/min/kg. For the same compound, the Vss ([2]; 50 mg/kg) was 177.2 L/kg, the CL ([2]; 100 mg/kg) was 188.3 mL/min/kg and the Vss ([2]; 100 mg/kg) was 98.5 L/kg. It also gave a CL ([2]; 200 mg/kg) of 89.5 mL/min/kg and a Vss ([2]; 200 mg/kg) of 28.5 L/kg.
